Test results from patent publication US8404706B2, “Opioid and opioid-like compounds and uses thereof” (Jenken Biosciences, Inc., priority 2002, dated 2013).

Columns and labels:
σ1 = σ1 (Homo sapiens, UniProt Q99720); settings: cited from earlier work; for Ki: read-out: Ki (σ1-ligands)
Blood urea nitrogen = Blood urea nitrogen (BUN) in LPS-treated rats; format: in vivo; settings: 5 mg/Kg iv 30 min before LPS (10 mg/Kg iv); 6 h after LPS
Procedure: (§1) Wistar-Kyoto (WKY) rats were anesthetized by intraperitoneal injection of urethane (1.2 g/kg). The trachea was cannulated to facilitate respiration and environmental temperature was maintained at 24° C. with an air-conditioning system. […] The left jugular vein was cannulated for the administration of drugs. Upon completion of the surgical procedure, cardiovascular parameters were allowed to stabilize for 30 min. After recording baseline hemodynamic parameters, animals were given norepinephrine [NE, 1 μg/kg intravenously (i.v.)], and 10 min later animals received vehicle (saline) or Escherichia coli lipopolysaccharide (LPS), 5-10 mg/kg, i.v. and were monitored for 360 min. The pressor responses to NE were reassessed every hour after vehicle or LPS injection. Prior to (i.e., at time 0) and every hour after vehicle or LPS, 0.5 mL of blood was taken to measure the changes in cytokine tumor necrosis factor-α (TNF-α), interleukin-10β (IL-10), and nitrate (an indicator of NO) (Yen, M. H. et al., Shock 14, 60-67, 2000). […] All hemodynamic and biochemical parameters were recorded for 6 hours in all animal groups.
(§2) BUN and Creatinine levels were measured at 0 and 6 hr after injection of saline or LPS by “DRI-Chemical slide” (Fujifilm Co., dropping 10 μL plasma onto the slide with micropipette). […]

[1] = system: rats treated with lipopolysaccharide (LPS); assay: Mean arterial blood pressure (MAP) in LPS-treated rats; format: in vivo, Wistar-Kyoto (WKY) rats; settings: 5 mg/Kg iv 30 min before LPS (10 mg/Kg iv); 6 h after LPS
Procedure: (§3) Wistar-Kyoto (WKY) rats were anesthetized by intraperitoneal injection of urethane (1.2 g/kg). The trachea was cannulated to facilitate respiration and environmental temperature was maintained at 24° C. with an air-conditioning system. […] The left jugular vein was cannulated for the administration of drugs. Upon completion of the surgical procedure, cardiovascular parameters were allowed to stabilize for 30 min. After recording baseline hemodynamic parameters, animals were given norepinephrine [NE, 1 μg/kg intravenously (i.v.)], and 10 min later animals received vehicle (saline) or Escherichia coli lipopolysaccharide (LPS), 5-10 mg/kg, i.v. and were monitored for 360 min. The pressor responses to NE were reassessed every hour after vehicle or LPS injection. Prior to (i.e., at time 0) and every hour after vehicle or LPS, 0.5 mL of blood was taken to measure the changes in cytokine tumor necrosis factor-α (TNF-α), interleukin-10β (IL-10), and nitrate (an indicator of NO) (Yen, M. H. et al., Shock 14, 60-67, 2000). Any blood withdrawn was immediately replaced by the injection of an equal volume of saline (i.v.) in order to maintain the blood volume. The drug was administered i.v. 30 min. prior to and 30 min. after the injection of LPS. All hemodynamic and biochemical parameters were recorded for 6 hours in all animal groups.
(§4) Compounds, XXV and XXVI (shown below), were tested according to the foregoing protocols. In the following tables, XXV or XXVI (5 mg/Kg, iv) was injected 30 min before LPS treatment (10 mg/Kg, iv) unless otherwise indicated. In all experiments, at least six rats were tested. All measurements were performed 6 h after LPS injection unless otherwise indicated. The inhibitory effects of the compounds tested were described as a percentage of protection or inhibition with respect to the change in LPS-treated animals as compared to the control animals.

[2] = system: lung tissues of rats receiving lipopolysaccharide (LPS); assay: Histological study of lung tissue after LPS
From the text: Lungs and livers were obtained from surviving mice in each group after the survival study and these tissues were fixed in Carson-Millonig's solution for histopathological examination as described previously in Chen, A. et al. Lab. […] The fixed lung and liver tissues were dehydrated in graded ethanol and embedded in paraffin. Three-micron sections were stained with the hematoxylin and eosin reagent for light microscopy. […] This histological alteration was quantitatively analyzed as an index on the severity of tissue injury. This index was a neutrophil infiltration index which was determined by counting the numbers of neutrophils in 10 randomly selected high power fields. The index was expressed as the mean of these 10 numbers±standard error of the mean (SEM)/high power field.

Superoxide = Superoxide in LPS-treated rats; format: in vivo; settings: 6 h after LPS
Procedure: as §4

SGOT = assay: Serum glutamic oxaloacetic transaminase (SGOT) in LPS-treated rats; format: in vivo; settings: for SGOT % Inhibition / SGOT, LPS + Compound: 6 h after LPS
Procedure: as §3
(§5) 10 μl of serum was taken out at 0 and 6 hr intervals and were added to slides of GOP and GTP and then placed in DRI-CHEM 3000 (Colorige Tric Analyzer; FUJIFILM; Tokyo, Japan.
as §4

[3] = system: rats treated with lipopolysaccharide (LPS); assay: Heart rate in LPS-treated rats; format: in vivo, Wistar-Kyoto (WKY) rats; settings: 5 mg/Kg iv 30 min before LPS (10 mg/Kg iv); 6 h after LPS
Procedure: as §3, §4

TNF-α = assay: Plasma TNF-α (ELISA) in LPS-treated rats; format: in vivo, Wistar-Kyoto (WKY) rats; settings: 5 mg/Kg iv 30 min before LPS (10 mg/Kg iv); measurement taken at 2 h
Procedure: as §3
Blood samples (0.3 mL) for the measurement of TNF-α level in the plasma were obtained at 0, 60, 120, 180, and 360 min. after the injection of saline or LPS. At 60 and 360 min. after the injection of saline or LPS, the volume of blood sample taken from the animals was 0.5 mL instead of 0.3 mL for performing the measurement of IL-10 in addition to TNF-α. These samples were collected from a catheter placed in the carotid artery and were centrifuged at 7200 g for 3 min. to obtain the plasma for measuring the levels of TNF-α, IL-10, and nitrate (as described below). The plasma samples (100 μL) were diluted 1:2, and TNF-α was measured in duplicate with an enzyme-linked immunoadsorbent assay (ELISA) kit (Genzyme Co., Cambridge, Mass.), and the amounts of IL-10 in the plasma (100 μL) were measured by ELISA kit (Endogen Inc., Boston, Mass.), as described previously (Yen, M. H. et al.: Biochem. Biophys. Res. Commun. 228:459-466 (1996)).
Compounds, XXV and XXVI (shown below), were tested according to the foregoing protocols. In the following tables, XXV or XXVI (5 mg/Kg, iv) was injected 30 min before LPS treatment (10 mg/Kg, iv) unless otherwise indicated. In all experiments, at least six rats were tested. All measurements were performed 6 h after LPS injection unless otherwise indicated. […]

[4] = system: nitrate (an indicator of NO); assay: Plasma nitrate in LPS-treated rats; format: in vivo, Wistar-Kyoto (WKY) rats; settings: 5 mg/Kg iv 30 min before LPS (10 mg/Kg iv); 6 h after LPS
Procedure: as §1, with “injection.” for “injection. Prior to (i.e., at time 0) and every hour after vehicle or LPS, 0.5 mL of blood was taken to measure the changes in cytokine tumor necrosis factor-α (TNF-α), interleukin-10β (IL-10), and nitrate (an indicator of NO) (Yen, M. H. et al., Shock 14, 60-67, 2000).”
Fifty microliters of plasma previously kept in −20° C. freezer was thawed and de-proteinized by incubating with 95% ethanol (4° C.) for 30 min. […] The amounts of nitrate in the plasma ([…]) were measured by adding a reducing agent (0-8% VCl3 in 1N HCl) to the purge vessel to convert nitrate to NO, which was stripped from the plasma by using a helium gas purge. […] Nitrate concentrations were calculated by comparison with standard solutions of sodium nitrate (Sigma Chemical Co., St. Louis, Mo.). […]

Creatinine = assay: Plasma creatinine in LPS-treated rats; format: in vivo; settings: 5 mg/Kg iv 30 min before LPS (10 mg/Kg iv); 6 h after LPS
Procedure: as §1, §2

[5] = system: ICR mice injected with LPS; assay: Survival study after LPS; format: in vivo
Procedure: Survival studies were performed in ICR mice (28-35 g), whose stock originated from the Institute of Cancer Research of National Institute of Health in U.S.A. They were purchased from the National Animal Center (Taipei, R.O.C., Taiwan). LPS [60 mg/kg intraperitoneally (i.p.)] was injected in the presence of vehicle or drugs and survival was monitored every 6 hours until 36 hours, Different groups of animals received vehicle (saline) together with LPS (n=20) or LPS plus compounds (2.5 mg/kg at time 0 and 6 hours after LPS, n=20).
All values in the figures and text are expressed as mean. SEM of n observations, where n represents the number of animals studied. Statistical evaluation was performed by using analysis of variance (ANOVA) followed by a multiple comparison test (Scheffe's test), the IL-10 level and the neutrophil infiltration index which were analyzed by unpaired Student's t test. The chi-square test was used for determining the significant differences in the survival rate between control and drug-treated groups. A P value of less than 0.05 was considered to be statistically significant.

SGPT = assay: Serum glutamic pyrate transaminase (SGPT) in LPS-treated rats; format: in vivo; settings: for SGPT, LPS + Compound / SGPT % Inhibition: 6 h after LPS
Procedure: as §3, §5, §4

[6] = 5 mg/Kg iv 30 min before LPS (10 mg/Kg iv)
[7] = 5 mg/Kg iv 30 min before LPS (10 mg/Kg iv), XXVI value not statistically significant
[8] = 6 hours after LPS, pretreatment (30 min before LPS; 5, 10 mg/kg) and post-treatment (30 min after LPS; 10 mg/kg), p<0.05

Sequence of σ1 (Q99720 whole entry): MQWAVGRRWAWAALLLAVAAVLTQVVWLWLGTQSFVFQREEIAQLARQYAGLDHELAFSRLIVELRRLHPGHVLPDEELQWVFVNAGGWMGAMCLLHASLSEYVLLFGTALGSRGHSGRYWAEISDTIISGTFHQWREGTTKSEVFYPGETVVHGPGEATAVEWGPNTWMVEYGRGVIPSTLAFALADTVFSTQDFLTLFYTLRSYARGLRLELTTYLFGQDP

Compound: Br.C=CCN1CC[C@]23CCCC[C@H]2[C@H]1Cc1ccc(OC)cc13
- melting point: 190 to 192 °C

Compound: Br.COc1ccc2c(c1)[C@@]13CCCC[C@H]1[C@@H](C2)N(Cc1ccccc1)CC3
- melting point: 185 to 186 °C

Compound: Br.COc1ccc2c(c1)[C@@]13CCCC[C@H]1[C@@H](C2)N(Cc1ccc(F)cc1)CC3
- melting point: 226 to 228 °C

Compound: C=CCN1CCC2(C)c3cc(O)ccc3CC1C2C (stereo not shown) [N-allylnormetazocine]
- affinity at σ1 (σ1): relatively poor affinity
- σ1/σ2 ratio (σ1; selectivity ratio): < 100

Compound: C=CCCCCN1CCC2(C)c3cc(O)ccc3CC1C2C (stereo not shown) [N-hex-5-enyl]
- Ki (σ1): 1 nM
- σ2/σ1 (σ1; selectivity ratio): 750

Compound: C=CCCCN1CCC2(C)c3cc(O)ccc3CC1C2C (stereo not shown) [N-pent-4-enyl]
- Ki (σ1): 2 nM
- σ2/σ1 (σ1; selectivity ratio): 1250

Compound: COc1ccc2c(c1)[C@]13CCCCC1[C@H](C2)N(C)CC3 (stereo partly shown) [XXVI]
- Blood urine nitrogen % of Inhibition (Blood urea nitrogen): 47%
- Blood urine nitrogen, LPS + Compound (Blood urea nitrogen): 45 mg/dL
- MAP % Protection [1]: 100%
- MAP, LPS + Compound [1]: 105 mmHg
- Lung tissue morphology after compound alone ([2]; injections of compound alone, no LPS, n=2, FIG. 5 (400×) and FIG. 6 (40×)): morphologically relatively normal lung tissues
- PMN infiltration in lung caused by LPS ([2]; pretreatment with compound, high power (400×) light microscope, FIG. 5): improved
- Thickness of alveolar wall with interstitial congestion and edema caused by LPS ([2]; pretreatment with compound, low power (40×) light microscope, FIG. 6): improved
- Superoxide % Inhibition (Superoxide; [6]): 68%
- Superoxide, LPS + Compound (Superoxide; [6]): 8200 relative units
- SGOT % Inhibition (SGOT; [6]): 53%
- SGOT, LPS + Compound (SGOT; [6]): 158 U/L
- Heart Rate % Protection [3]: 36%
- Heart Rate, LPS + Compound [3]: 420 beats/min
- TNF-α % Inhibition (TNF-α): 74%
- TNF-α, LPS + Compound (TNF-α): 510 ng/mL
- Nitrate % Inhibition [4]: 75%
- Nitrate, LPS + Compound [4]: 75 µM
- Creatinine % of Inhibition (Creatinine): 60%
- Creatinine, LPS + Compound (Creatinine): 0.40 mg/dL
- % of Protection (survival at 14 h) ([5]; 14 h after LPS): 100%
- % of Survival at 14 h, LPS + Compound ([5]; 14 h after LPS, method: LPS 60 mg/kg i.p., compound 2.5 mg/kg at 0 and 6 h): 100%
- % of Protection (survival at 18 h) ([5]; 18 h after LPS): 40%
- % of Survival at 18 h, LPS + Compound ([5]; 18 h after LPS, method: LPS 60 mg/kg i.p., compound 2.5 mg/kg at 0 and 6 h): 40%
- SGPT, LPS + Compound (SGPT; [6]): 36 U/L
- SGPT % Inhibition (SGPT; [7]): 100^3%

Compound: O=C1CC[C@@]2(O)[C@@H]3Cc4ccc(O)c5c4C2(CCN3CC2CC2)[C@H]1O5 [XXV]
- MAP % Protection [1]: 33%
- MAP, LPS + Compound [1]: 80 mmHg
- Superoxide % Inhibition (Superoxide; Post-treatment with 10 mg/Kg): 69%
- Superoxide, LPS + Compound (Superoxide; Post-treatment with 10 mg/Kg): 15720 relative units
- Superoxide % Inhibition (Superoxide; Pretreatment with 10 mg/Kg): 85%
- Superoxide, LPS + Compound (Superoxide; Pretreatment with 10 mg/Kg): 11866 relative units
- SGOT % Inhibition (SGOT; [6]): 60%
- SGOT, LPS + Compound (SGOT; [6]): 192 U/L
- Effect on SGOT after LPS (SGOT; [8]): significant decrease
- SGOT % Inhibition (SGOT; Post-treatment with 10 mg/Kg): 76%
- SGOT, LPS + Compound (SGOT; Post-treatment with 10 mg/Kg): 192 U/L
- SGOT % Inhibition (SGOT; Pretreatment with 10 mg/Kg): 94%
- SGOT, LPS + Compound (SGOT; Pretreatment with 10 mg/Kg): 192 U/L
- Heart Rate % Protection [3]: >90%
- Heart Rate, LPS + Compound [3]: 410 beats/min
- TNF-α % Inhibition (TNF-α): 50%
- TNF-α, LPS + Compound (TNF-α): 180 ng/mL
- SGPT, LPS + Compound (SGPT; [6]): 61.6 U/L
- SGPT % Inhibition (SGPT; [7]): 78%
- Effect on SGTP after LPS (SGPT; [8]): significant decrease
- SGPT % Inhibition (SGPT; Post-treatment with 10 mg/Kg): 82%
- SGPT, LPS + Compound (SGPT; Post-treatment with 10 mg/Kg): 59.6 U/L
- SGPT % Inhibition (SGPT; Pretreatment with 10 mg/Kg): 94%
- SGPT, LPS + Compound (SGPT; Pretreatment with 10 mg/Kg): 53.8 U/L
